In test [1] the target is T1, Vasoactive intestinal polypeptide receptor 1 (Homo sapiens, UniProt P32241).
T1 sequence (P32241 whole entry): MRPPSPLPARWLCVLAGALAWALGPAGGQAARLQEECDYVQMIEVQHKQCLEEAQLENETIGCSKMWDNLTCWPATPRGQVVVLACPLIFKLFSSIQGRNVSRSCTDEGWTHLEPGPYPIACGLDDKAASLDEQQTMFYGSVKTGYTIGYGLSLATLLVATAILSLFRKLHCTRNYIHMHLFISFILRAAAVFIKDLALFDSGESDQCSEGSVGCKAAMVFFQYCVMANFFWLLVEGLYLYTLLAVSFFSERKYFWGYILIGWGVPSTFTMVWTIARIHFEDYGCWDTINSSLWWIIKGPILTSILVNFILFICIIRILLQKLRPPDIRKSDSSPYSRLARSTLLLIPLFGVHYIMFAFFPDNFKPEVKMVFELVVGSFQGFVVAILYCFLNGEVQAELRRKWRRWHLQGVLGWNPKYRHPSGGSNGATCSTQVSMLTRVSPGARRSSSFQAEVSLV
Put plainly: Agonist activity at human VIPR1 expressed in CHOK1 cells assessed as intracellular cAMP accumulation after 60 mins by PathHunter assay. In kind it is functional, cell-based. (Changes in cAMP serve as a functional read-out for many G protein-coupled receptors.)

For test [2], the target named is T2, Vasoactive intestinal polypeptide receptor 2 (Homo sapiens, UniProt P41587).
T2 sequence (P41587 whole entry): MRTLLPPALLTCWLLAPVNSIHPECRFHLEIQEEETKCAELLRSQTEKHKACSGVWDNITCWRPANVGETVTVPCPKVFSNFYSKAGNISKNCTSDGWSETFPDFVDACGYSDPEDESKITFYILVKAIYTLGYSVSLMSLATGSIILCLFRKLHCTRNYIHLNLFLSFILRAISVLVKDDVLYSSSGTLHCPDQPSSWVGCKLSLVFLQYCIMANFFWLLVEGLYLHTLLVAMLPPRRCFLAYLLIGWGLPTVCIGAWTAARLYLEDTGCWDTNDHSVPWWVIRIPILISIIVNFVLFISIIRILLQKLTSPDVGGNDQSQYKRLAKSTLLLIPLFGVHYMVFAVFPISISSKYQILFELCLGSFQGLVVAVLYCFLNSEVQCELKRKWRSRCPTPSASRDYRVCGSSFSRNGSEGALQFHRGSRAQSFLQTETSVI
Put plainly: Agonist activity at human VIPR2 expressed in CHOK1 cells assessed as intracellular cAMP accumulation after 60 mins by PathHunter assay. In kind it is functional, cell-based.

Numbered stars: 1 amine (or outer) side, 2 acyl side, 3 side chain; on linkers, the order of the positions; unused ones are H or OH. Square brackets hold non-standard residues; d marks the D form. Peptide text beside a SMILES is read from it. ξ: configuration not given here. X1 = O=C([C@H]1CCC[C@@H]1N[*:1])[*:2]; X2 = O=C([C@H]1CNC[C@@H]1N[*:1])[*:2]; β3hN = NC(=O)C[C@H](N)CC(=O)O; ξβ3hR = N=C(N)NCCCC(N)CC(=O)O; β3hV = CC(C)[C@H](N)CC(=O)O; ξβ3hN = NC(=O)CC(N)CC(=O)O; ξβ3hL = CC(C)CC(N)CC(=O)O; ξβ3hK = NCCCCC(N)CC(=O)O; ξβ3hT = CC(O)C(N)CC(=O)O; ξβ3hV = CC(C)C(N)CC(=O)O; Aib = CC(C)(N)C(=O)O; βAla = NCCC(=O)O

This passage reports EC50 results from ChEMBL document CHEMBL4257221, “Peptides comprising non-natural amino acids and methods of making and using the same” (2016).

In general, EC50 refers to the midpoint of the concentration-response curve. As for `CC[C@H](C)[C@H](NC(=O)[C@H](CO)NC(=O)[C@H]1CCC[C@@H]1NC(=O)[C@H](CC(C)C)NC(=O)[C@H](Cc1ccc(O)cc1)NC(=O)[C@H]1CNC[C@@H]1NC(=O)[C@H](CCCCN)NC(=O)[C@H](C)NC(=O)[C@H](C)NC(=O)[C@H]1CCC[C@@H]1NC(=O)[C@H](CCC(N)=O)NC(=O)[C@H](CCCCN)NC(=O)[C@H](CCCNC(=N)N)NC(=O)[C@H](CC(C)C)NC(=O)[C@H](CCCNC(=N)N)NC(=O)[C@@H](NC(=O)[C@H](Cc1ccc(O)cc1)NC(=O)[C@H](CC(N)=O)NC(=O)[C@H](CC(=O)O)NC(=O)[C@@H](NC(=O)[C@H](Cc1ccccc1)NC(=O)[C@@H](NC(=O)[C@H](C)NC(=O)[C@H](CC(=O)O)NC(=O)[C@H](CO)NC(=O)[C@H](Cc1cnc[nH]1)NC(C)=O)C(C)C)[C@@H](C)O)[C@@H](C)O)C(=O)N[C@@H](CCCCN)C(=O)NC(CC(N)=O)CC(=O)N[C@@H](CCCCN)C(=O)N[C@@H](CCCNC(=N)N)C(=O)N[C@@H](Cc1ccc(O)cc1)C(=O)O` (stereo partly drawn) (Ac-HSDAVFTDNYTRLRKQ[X1]AAK[X2]YL[X1]SIK[ξβ3hN]KRY-OH), the EC50 in test [1] came to 0.195 nM; in test [2], 0.0785 nM.
On the same counts, the results for `CC(=O)N[C@@H](Cc1cnc[nH]1)C(=O)N[C@H]1CCC[C@@H]1C(=O)N[C@@H](CC(=O)O)C(=O)N[C@@H](C)C(=O)NC(CC(=O)N[C@@H](Cc1ccccc1)C(=O)N[C@H](C(=O)N[C@@H](CCC(=O)O)C(=O)N[C@@H](CC(N)=O)C(=O)N[C@@H](Cc1ccc(O)cc1)C(=O)N[C@H](C(=O)N[C@@H](CCCCN)C(=O)N[C@@H](CC(C)C)C(=O)NC(CCCNC(=N)N)CC(=O)N[C@@H](CCCCN)C(=O)N[C@@H](CCC(N)=O)C(=O)N[C@@H](CC(C)C)C(=O)N[C@@H](C)C(=O)N[C@@H](C)C(=O)N[C@H]1CNC[C@@H]1C(=O)N[C@@H](CCCCN)C(=O)N[C@@H](Cc1ccc(O)cc1)C(=O)N[C@H]1CCC[C@@H]1C(=O)N[C@@H](CC(N)=O)C(=O)N[C@@H](CC(=O)O)C(=O)N[C@@H](CC(C)C)C(=O)NC(CCCCN)CC(=O)N[C@@H](CCCCN)C(=O)NCC(=O)NCCC(=O)N[C@H](C(=O)O)[C@@H](C)O)[C@@H](C)O)[C@@H](C)O)C(C)C` (stereo partly drawn) (Ac-H[X1]DA[ξβ3hV]FTENYTKL[ξβ3hR]KQLAA[X2]KY[X1]NDL[ξβ3hK]KG[βAla]T-OH) are > 1000 nM and 1.37 nM.
On the same counts, the results for `CC[C@H](C)[C@H](NC(=O)[C@H](C)NC(=O)[C@H](CC(N)=O)NC(=O)CC(CC(C)C)NC(=O)[C@H](Cc1ccc(O)cc1)NC(=O)[C@H](CCCCN)NC(=O)[C@H](CCCCN)NC(=O)CC(NC(=O)[C@H](C)NC(=O)[C@H](CC(C)C)NC(=O)[C@H](CCC(N)=O)NC(=O)CC(CCCCN)NC(=O)[C@H](CCCNC(=N)N)NC(=O)[C@H](CC(C)C)NC(=O)[C@H](CCCNC(=N)N)NC(=O)CC(NC(=O)[C@H](Cc1ccc(O)cc1)NC(=O)[C@H](CC(N)=O)NC(=O)[C@H](CC(=O)O)NC(=O)[C@@H](NC(=O)[C@H](Cc1ccccc1)NC(=O)[C@H]1CCC[C@@H]1NC(=O)[C@H](C)NC(=O)[C@H](CC(=O)O)NC(=O)[C@@H](Cc1ccccc1)NC(=O)[C@@H](N)Cc1cnc[nH]1)[C@@H](C)O)C(C)O)C(C)C)C(=O)NC(CC(=O)N[C@@H](CC(N)=O)C(=O)O)CC(C)C` (some centres undefined) are 89.3 nM and > 1000 nM.
On the same counts, the results for `CC[C@H](C)[C@H](NC(=O)[C@H](C)NC(=O)[C@H](CC(N)=O)NC(=O)CC(CC(C)C)NC(=O)[C@H](Cc1ccc(O)cc1)NC(=O)[C@H](CCCCN)NC(=O)[C@H](CCCCN)NC(=O)CC(NC(=O)[C@H](C)NC(=O)[C@H](CC(C)C)NC(=O)[C@H](CCC(N)=O)NC(=O)CC(CCCCN)NC(=O)[C@H](CCCNC(=N)N)NC(=O)[C@H](CC(C)C)NC(=O)[C@H](CCCNC(=N)N)NC(=O)CC(NC(=O)[C@H](Cc1ccc(O)cc1)NC(=O)[C@H](CC(N)=O)NC(=O)[C@H](CC(=O)O)NC(=O)CC(NC(=O)[C@H](Cc1ccccc1)NC(=O)[C@@H](NC(=O)[C@H](C)NC(=O)CC(CC(=O)O)NC(=O)[C@@H](Cc1ccccc1)NC(=O)[C@@H](N)Cc1cnc[nH]1)C(C)C)C(C)O)C(C)O)C(C)C)C(=O)NC(CC(=O)N[C@@H](CC(N)=O)C(=O)O)CC(C)C` (some centres undefined) are 912 nM and 609 nM.
Consider `CC[C@H](C)[C@H](NC(=O)[C@H](C)NC(=O)[C@H](CC(N)=O)NC(=O)CC(CC(C)C)NC(=O)[C@H](Cc1ccc(O)cc1)NC(=O)[C@H](CCCCN)NC(=O)[C@H](CCCCN)NC(=O)CC(NC(=O)[C@H](C)NC(=O)[C@H](CC(C)C)NC(=O)[C@H](CCC(N)=O)NC(=O)CC(CCCCN)NC(=O)[C@H](CCCNC(=N)N)NC(=O)[C@H](CC(C)C)NC(=O)[C@H](CCCNC(=N)N)NC(=O)CC(NC(=O)[C@H](Cc1ccc(O)cc1)NC(=O)[C@H](CC(N)=O)NC(=O)[C@H](CC(=O)O)NC(=O)[C@@H](NC(=O)[C@H](Cc1ccccc1)NC(=O)[C@H]1CCC[C@@H]1NC(=O)[C@H](C)NC(=O)[C@H](CC(=O)O)NC(=O)[C@H]1CCC[C@@H]1NC(=O)[C@@H](N)Cc1cnc[nH]1)[C@@H](C)O)C(C)O)C(C)C)C(=O)NC(CC(=O)N[C@@H](CC(N)=O)C(=O)O)CC(C)C` (stereo partly drawn) (H-H[X1]DA[X1]FTDNY[ξβ3hT]RLR[ξβ3hK]QLA[ξβ3hV]KKY[ξβ3hL]NAI[ξβ3hL]N-OH), for which the EC50 in test [1] worked out at 0.358 nM; in test [2] it was 79.6 nM.
The matching figures for `CC(=O)N[C@@H](Cc1cnc[nH]1)C(=O)N[C@H]1CCC[C@@H]1C(=O)N[C@@H](CC(=O)O)C(=O)N[C@@H](C)C(=O)NC(CC(=O)N[C@@H](Cc1ccccc1)C(=O)N[C@H](C(=O)N[C@@H](CCC(=O)O)C(=O)N[C@@H](CC(N)=O)CC(=O)N[C@@H](Cc1ccc(O)cc1)C(=O)N[C@H](C(=O)N[C@@H](CCCCN)C(=O)N[C@@H](CC(C)C)C(=O)N[C@@H](CCCNC(=N)N)C(=O)NC(CCCCN)CC(=O)N[C@@H](CCC(N)=O)C(=O)N[C@@H](CC(C)C)C(=O)N[C@@H](C)C(=O)N[C@@H](C)C(=O)N[C@H]1CNC[C@@H]1C(=O)N[C@@H](CCCCN)C(=O)N[C@@H](Cc1ccc(O)cc1)C(=O)N[C@H]1CCC[C@@H]1C(=O)N[C@@H](CC(N)=O)C(=O)N[C@@H](CC(=O)O)C(=O)N[C@@H](CC(C)C)C(=O)NC(CCCCN)CC(=O)N[C@@H](CCCCN)C(=O)NCC(=O)NCCC(=O)N[C@H](C(=O)O)[C@@H](C)O)[C@@H](C)O)[C@@H](C)O)C(C)C` (stereo partly drawn) (Ac-H[X1]DA[ξβ3hV]FTE[β3hN]YTKLR[ξβ3hK]QLAA[X2]KY[X1]NDL[ξβ3hK]KG[βAla]T-OH): 293 nM and 1.27 nM.
On the same counts, the results for `CC(=O)N[C@@H](Cc1cnc[nH]1)C(=O)NC(C)(C)C(=O)N[C@@H](CC(=O)O)C(=O)N[C@@H](C)C(=O)N[C@H](CC(=O)N[C@@H](Cc1ccccc1)C(=O)N[C@H](C(=O)N[C@@H](CCC(=O)O)C(=O)N[C@@H](CC(N)=O)CC(=O)N[C@@H](Cc1ccc(O)cc1)C(=O)N[C@H](C(=O)N[C@@H](CCCCN)C(=O)N[C@@H](CC(C)C)C(=O)N[C@@H](CCCNC(=N)N)C(=O)N[C@@H](CCCCN)C(=O)N[C@@H](CCC(N)=O)C(=O)N[C@@H](CC(C)C)C(=O)N[C@@H](C)C(=O)N[C@@H](C)C(=O)N[C@H]1CNC[C@@H]1C(=O)N[C@@H](CCCCN)C(=O)N[C@@H](Cc1ccc(O)cc1)C(=O)N[C@H]1CCC[C@@H]1C(=O)N[C@@H](CC(N)=O)C(=O)N[C@@H](CC(=O)O)C(=O)N[C@@H](CC(C)C)C(=O)NC(CCCCN)CC(=O)N[C@@H](CCCCN)C(=O)NCC(=O)NCCC(=O)N[C@H](C(=O)O)[C@@H](C)O)[C@@H](C)O)[C@@H](C)O)C(C)C` (stereo partly drawn) (Ac-H[Aib]DA[β3hV]FTE[β3hN]YTKLRKQLAA[X2]KY[X1]NDL[ξβ3hK]KG[βAla]T-OH) are > 1000 nM and 3.47 nM.
